Measured values from ChEMBL document CHEMBL1157104 (J Med Chem, 2010).

Columns and labels:
[1] = molecular target: T1, Progesterone receptor (Homo sapiens) (UniProt P06401); experiment: Binding affinity to progesterone receptor relative to R5020
T1 sequence (whole entry): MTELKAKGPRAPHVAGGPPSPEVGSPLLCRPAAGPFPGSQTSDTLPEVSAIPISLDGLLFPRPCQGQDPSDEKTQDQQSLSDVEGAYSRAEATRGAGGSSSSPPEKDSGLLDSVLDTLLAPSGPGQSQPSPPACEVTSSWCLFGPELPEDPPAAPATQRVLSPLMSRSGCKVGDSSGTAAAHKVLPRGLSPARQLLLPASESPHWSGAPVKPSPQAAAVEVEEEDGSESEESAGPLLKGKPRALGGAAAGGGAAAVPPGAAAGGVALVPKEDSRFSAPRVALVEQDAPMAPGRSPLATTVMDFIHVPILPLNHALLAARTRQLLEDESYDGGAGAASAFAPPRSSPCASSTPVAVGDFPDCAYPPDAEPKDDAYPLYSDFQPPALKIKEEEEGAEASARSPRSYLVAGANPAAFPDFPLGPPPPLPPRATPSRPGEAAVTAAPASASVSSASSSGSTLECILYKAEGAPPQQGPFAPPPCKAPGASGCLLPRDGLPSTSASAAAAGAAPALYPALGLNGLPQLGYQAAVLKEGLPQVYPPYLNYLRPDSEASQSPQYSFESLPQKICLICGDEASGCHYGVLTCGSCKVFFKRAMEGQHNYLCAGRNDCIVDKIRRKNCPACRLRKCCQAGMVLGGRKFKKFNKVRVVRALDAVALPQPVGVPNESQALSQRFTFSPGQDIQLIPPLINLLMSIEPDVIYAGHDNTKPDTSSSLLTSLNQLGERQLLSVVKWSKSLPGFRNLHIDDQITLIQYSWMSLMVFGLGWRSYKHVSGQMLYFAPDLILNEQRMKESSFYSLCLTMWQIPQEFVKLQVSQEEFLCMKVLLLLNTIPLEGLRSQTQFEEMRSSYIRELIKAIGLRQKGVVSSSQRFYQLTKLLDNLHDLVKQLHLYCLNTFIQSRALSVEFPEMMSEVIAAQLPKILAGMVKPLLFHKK

Progesterone receptor = molecular target: T2, Progesterone receptor (Homo sapiens, UniProt P06401); experiment: Binding affinity to progesterone receptor
T2 sequence (P06401 whole entry): T1 sequence (whole entry)

SMILES	relative binding affinity (RBA) [1]	Kd (Progesterone receptor) [nM]
CC1(C)OC(=S)Nc2ccc(-c3ccc(C#N)n3CCF)cc21	18.5	
CCC(=O)[C@@]1(C)CC[C@H]2[C@@H]3CCC4=CC(=O)CCC4=C3CC[C@@]21C [PROMEGESTONE]		0.4
CC1(C)OC(=S)Nc2ccc(-c3ccc(C#N)n3CCCF)cc21	0.99	
